Legend:
[1] = tested on: K562 CRISPRi or CRISPRa cells; IFITM1, IFITM2, IFITM3; test: Viability of K562 CRISPRi/CRISPRa cells with modulated IFITM expression (chemical-genetic interaction, IC50 shift); format: cell-based; conditions: for IFITM assistance versus linker length: linker series: BisRoc-1 (PEG11), BisRoc-2 (PEG4), BisRoc-3 (PEG2), rocaglamide (no linker), FIG. 2B
Text: FIGS. 1A-1E. Longer linker length correlates with greater IFITM assistance in a series of linked rocaglamide analogs. FIG. 1A: Crystal structure of rocaglamide bound to eIF4A1 and polypurine RNA showing adjacent symmetry mates (PDB, 5ZC9). The distance between RocA molecules bound to adjacent eIF4A1 proteins is approximately 14 Å and the solvent exposed amide on RocA offers a handle for chemical modification. FIG. 1B: Chemical structures of select eIF4A1 inhibitors. FIGS. 1C-1D: Viability of K562 CRISPRi (FIG. 1C) or CRISPRa (FIG. 1D) cells expressing sgRNAs treated with BisRoc-1 or rocaglamide. Data represent means of three biological replicates; error bars denote SD. FIG. 1E: Chemical structures of a BisRoc linker length series (see also FIG. 2B).
FIGS. 2A-2C. IFITM proteins assist the cellular activity of diverse linked chemotypes. FIG. 2A: Heavy atom skeletons of compounds assessed for IFITM assistance (see also FIG. 3 for chemical structures). Compounds were categorized as non-linked chemotypes (compounds 3, 6, and 8; black), linked chemotypes with short linkers (compounds 10 and 13; light gray), or linked chemotypes with long linkers (compounds 15 and 17; medium gray). FIG. 2B: Chemical-genetic interaction map of inhibitors in FIG. 2A with IFITM1, IFTM2, and IFITM3. Potency, as measured by dose-response IC50 in a cell viability assay (see also FIG. 1D for example source data), was normalized to that of non-sgRNA-expressing K562 CRISPRi or CRISPRa cells. Physicochemical properties, including molecular weight (MW) and number of rotatable bonds, with their respective traditional thresholds for drug-likeness are indicated (right). Data represent means of three biological replicates. FIG. 2C: Map of chemical space populated by 301 kinase inhibitors in clinical development (black), 2258 PROTACs reported in the literature (light gray), and 2 linked chemotypes described herein (medium gray). Boundaries represent traditional guidelines for drug-likeness.
Given the ubiquitous presence of IFITM proteins in cells, we hypothesized that the cellular uptake of other linked inhibitors in the literature could also be assisted by IFITM proteins. While not generally as large as the linked chemotypes described above, PROTACs are likewise composed of two chemical entities covalently attached by a flexible tether (15). […] Thus, we included several PROTACs and their non-linked parent inhibitors in an expanded survey of chemical-genetic interactions with IFITM proteins (FIG. 2A, FIGS. 3A-3B, and FIG. 4). We treated our K562 CRISPRi and CRISPRa cells with these inhibitors and evaluated differences in potency resulting from IFITM protein expression modulation, as measured by half-maximal inhibitory concentration (IC50) shift in a cell viability assay. […] The inverse finding, resistance to linked chemotypes, resulted from gene knockdown (FIG. 2B). Included among these compounds were a systematic linker series of BisRoc-1 analogs (FIG. 1E). […] The same trend was corroborated by the diverse ensemble of all molecules tested (FIG. 2B): the magnitudes of chemical-genetic interactions correlated with inhibitor size (molecular weight) and flexibility (number of rotatable bonds). […] Despite their cellular activities, the physicochemical properties of these linked chemotypes largely violate Lipinski's (1) and Veber's (2) classic guidelines (FIG. 2B and FIG. 4), raising the need for a revised drug design framework that considers IFITM-assisted uptake and other cellular import processes. […]

[2] = in vivo; cited from earlier work
[3] = tested on: MTOR; conditions: cited from earlier work
[4] = tested on: interferon-induced transmembrane (IFITM) proteins; test: Genome-scale chemical-genetic identification of uptake pathway; format: cell-based; conditions: genome-scale chemical-genetic approaches
Text: We devised additional linked inhibitors targeting EIF4A1 (BisRoc-1, molecular weight: 1466 g/mol) whose uptake we predicted would be assisted by IFITM proteins. This uptake pathway should provide a general mechanism by which large, flexibly linked chimeric molecules can gain assisted access to the cytosol, including compounds with mechanisms of action not easily accessible to traditional drug-like molecules.

[5] = tested on: KBM7 cells; IFITM2; conditions: IFITM2 knockout, not validated; cited from earlier work

Structure (SMILES): COc1ccc([C@@]23Oc4cc(OC)cc(OC)c4[C@]2(O)[C@H](O)[C@H](C(=O)NCCOCCOCCOCCOCCOCCOCCOCCOCCOCCOCCOCCNC(=O)[C@H]2[C@@H](O)[C@@]4(O)c5c(OC)cc(OC)cc5O[C@@]4(c4ccc(OC)cc4)[C@@H]2c2ccccc2)[C@H]3c2ccccc2)cc1 [BisRoc-1]
- overall modulation in the cellular activity accounted for by IFITM proteins ([1]; K562 CRISPRi/a cells, FIG. 1C-1D): 6.2 fold
- IFITM assistance versus linker length [1]: longer linker lengths correlated with greater IFITM assistance

Structure (SMILES): COc1ccc([C@@]23Oc4cc(OC)cc(OC)c4[C@]2(O)[C@H](O)[C@H](C(=O)NCCOCCOCCOCCOCCNC(=O)[C@H]2[C@@H](O)[C@@]4(O)c5c(OC)cc(OC)cc5O[C@@]4(c4ccc(OC)cc4)[C@@H]2c2ccccc2)[C@H]3c2ccccc2)cc1 [BisRoc-2]
- IFITM assistance versus linker length [1]: longer linker lengths correlated with greater IFITM assistance

Structure (SMILES): COc1ccc([C@@]23Oc4cc(OC)cc(OC)c4[C@]2(O)[C@H](O)[C@H](C(=O)NCCOCCOCCNC(=O)[C@H]2[C@@H](O)[C@@]4(O)c5c(OC)cc(OC)cc5O[C@@]4(c4ccc(OC)cc4)[C@@H]2c2ccccc2)[C@H]3c2ccccc2)cc1 [BisRoc-3]
- IFITM assistance versus linker length [1]: longer linker lengths correlated with greater IFITM assistance

Structure (SMILES): CO[C@H]1C[C@@H]2CC[C@@H](C)[C@@](O)(O2)C(=O)C(=O)N2CCCC[C@H]2C(=O)O[C@H]([C@H](C)C[C@@H]2CC[C@@H](OCCOCc3cn(CCOCCOCCOCCOCCOCCOCCOCCOCCC(=O)NCCCCn4nc(-c5ccc6oc(N)nc6c5)c5c(N)ncnc54)nn3)[C@H](OC)C2)CC(=O)[C@H](C)/C=C(\C)[C@@H](O)[C@@H](OC)C(=O)[C@H](C)C[C@H](C)C=CC=CC=C1C [RapaLink-1]
- blood-brain barrier penetration [2]: penetrates the blood-brain barrier
- activity in vivo [3]: highly active in vivo
- modulation of cell permeability by IFITM pathway [4]: modulates the cell permeability

Structure (SMILES): Cc1sc2c(c1C)C(c1ccc(Cl)cc1)=N[C@@H](CC(=O)NCCCCCCCCNC(=O)COc1cccc3c1C(=O)N(C1CCC(=O)NC1=O)C3=O)c1nnc(C)n1-2 (stereo partly drawn) [dBET6]
- IFITM2 chemical-genetic interaction [5]: statistically significant resistance chemical-genetic interaction

Structure (SMILES): COc1ccc([C@@]23Oc4cc(OC)cc(OC)c4[C@]2(O)[C@H](O)[C@H](C(=O)N(C)C)[C@H]3c2ccccc2)cc1 [rocaglamide]
- IFITM assistance versus linker length [1]: longer linker lengths correlated with greater IFITM assistance

From patent publication US20260345791A1, “EIF4A INHIBITORS AND USES THEREOF” (The Regents of the University of California, priority 2022, published 2026)
